Measured values taken from patent US20030049249A1 (priority 2001, published 2003).

Tests used:
[1] = system: chronically scrapie-infected N2a/Bos2 cells; assay type: cell-based, mouse
[2] = system: N2a/Bos2 cells exposed to 0.1% scrapie-infected brain homogenate (RML prions); assay type: cell-based, mouse

In the case of “phosphatidylinositol-specific phospholipase C [PIPLC]”, the “effect on PrPSc in chronically infected cells” value [1] is reported as “causes rapid loss of PrPSc”, the “effect on appearance of PrPSc” value ([2]; PIPLC 0.25, 0.5, 1 and 2 units/ml before and/or during exposure of a susceptible cell to prions) is reported as “prevents appearance of PrPSc” and the “concentration that sufficed to prevent appearance of PrPSc” value ([2]; added 2 h before and during 3-day exposure to 0.1% scrapie-infected brain homogenate, cell blot after 14 days in absence of PIPLC) is reported as 0.25 units/ml.
